Consider five molecules from US10350271B2, “Lipidated peptides for lowering blood glucose” (USTAV ORGANICKE CHEMIE A BIOCHEMIE AKADEMIE VED CR, V.V.I., priority 2014, dated 2019).

One assay addresses T1, rat PrRP receptor (Rattus norvegicus, UniProt Q64121).
T1 construct: host or cells: RC-4B/C rat pituitary cell line
T1 sequence (Q64121 1-370): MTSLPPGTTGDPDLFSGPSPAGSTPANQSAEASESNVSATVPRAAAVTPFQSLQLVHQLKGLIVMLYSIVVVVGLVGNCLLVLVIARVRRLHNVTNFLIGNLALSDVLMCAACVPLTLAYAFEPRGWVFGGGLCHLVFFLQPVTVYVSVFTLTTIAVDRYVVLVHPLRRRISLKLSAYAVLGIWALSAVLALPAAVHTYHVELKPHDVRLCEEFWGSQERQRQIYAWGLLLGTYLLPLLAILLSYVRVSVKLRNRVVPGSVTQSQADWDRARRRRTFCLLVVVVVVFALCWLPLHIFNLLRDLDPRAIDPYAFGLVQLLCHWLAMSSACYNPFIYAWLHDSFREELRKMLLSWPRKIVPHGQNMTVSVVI
The assay can be described thus: Competitive binding in RC-4B/C rat pituitary cells (125I-rat PrRP31). To be noted: for % of PrRP31, RC-4B/C rat pituitary cells: affinity relative to PrRP31. The method in brief:
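Displacement of rat 125I-PrRP31 ([…]) by test analogs, 10^−11–10^−4 mol·l^−1, on whole RC-4B/C cells, 60 min RT. Bound counts measured by γ-counter in duplicate, ≥3 repeats, analyzed by nonlinear one-site binding regression.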

Another assay deals with C57BL/6 mice. The assay can be described thus: Food intake in fasted mice after SC injection. To be noted: 5 mg/kg SC, 45 min after injection. The format is in vivo. The method in brief:
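Saline, PrRP or a lipidated analog was injected SC (1-10 mg/kg) after a 17 h fast with free water, animals housed singly.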

Assay [1] has as its target T2, human PrRP receptor GPR10 (Homo sapiens, UniProt P49683).
T2 construct: host or cells: CHO cells
T2 sequence (P49683 1-370): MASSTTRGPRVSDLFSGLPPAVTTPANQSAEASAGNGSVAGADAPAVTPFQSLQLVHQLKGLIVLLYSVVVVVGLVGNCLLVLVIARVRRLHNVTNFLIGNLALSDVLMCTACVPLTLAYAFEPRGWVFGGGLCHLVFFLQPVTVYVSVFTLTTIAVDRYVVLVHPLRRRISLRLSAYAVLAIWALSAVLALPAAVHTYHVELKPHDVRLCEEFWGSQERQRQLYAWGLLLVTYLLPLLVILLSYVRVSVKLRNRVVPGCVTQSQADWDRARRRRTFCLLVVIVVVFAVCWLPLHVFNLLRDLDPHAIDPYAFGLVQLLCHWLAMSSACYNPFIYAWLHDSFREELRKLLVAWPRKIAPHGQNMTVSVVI
The assay can be described thus: Competitive binding in CHO cells transfected with human GPR10 (human 125I-PrRP31). To be noted: for Ki: CHO cells, human 125I-PrRP31, read-out: Ki, GPR10 human receptor transfected in CHO cells; for % of PrRP31, GPR10 human receptor transfected in CHO cells: affinity relative to PrRP31. The method in brief: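 Values from one-site nonlinear regression of displacement curves: analogs (final 10^-11 to 10^-4 mol·l^-1) competed with 125I-PrRP31 (final 5×10^-11 mol·l^-1) on adherent human GPR10 CHO cells. Binding ran 1 h at room temperature, pH 7.4 buffer with NaCl, MgCl2, CaCl2, glucose, BSA; cell-bound radioactivity counted after NaOH lysis.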

For another assay, the system named is Wistar rats. The assay can be described thus: Food intake in fasted rats after SC injection. The format is in vivo. To be noted: overnight fasted rats, compared to controls given vehicle. As to the method: NMRI mice, C57BL/6 mice, and Wistar rats (AnLab, Prague, Czech Republic) were housed in a temperature of 23° C. and a daily cycle of 12 h light and dark (light from 6:00). They were given ad libitum water and a standard chow diet that contained 25, 9 and 66% of calories of protein, fat and carbohydrate respectively. Energy content of the feed was 3.4 kcal/g (St-1, Mlýn Kocanda, Czech Republic). Db/db mice and their controls (C57BL/6 background) were obtained from Taconic (Denmark), housed under the same conditions as described above, and fed by Altromin (Taconic, Denmark). ZDF-Lepr^fa/Crl, diabetic fa/fa male rats were obtained from Charles River (France), housed under same conditions as described above, and fed with a Purina 5008 diet (IPS Product Supplies Limited, UK). All experiments followed the ethical guidelines for animal experiments and the law of the Czech Republic Nr. 246/1992.
In experiments with C57BL/6 mice or Wistar rats, food intake was measured with overnight fasted animals in individual cages. Food was withdrawn 17 hours prior to injection of lipidated analog of prolactin releasing peptide (PrRP); free access to water was maintained. The administration of either saline, PrRP, or lipidated analogs was performed by SC injection at doses of 1-10 mg/kg (which corresponded to a volume of 0.2 ml/mouse and 0.1 ml/100 g weight of rat). Fifteen minutes after the lipidated analog of prolactin releasing peptide (PrRP) administration, the mice were given pre-weighed food. The food was then weighed every 30 minutes for 5-10 hours. The administration of each dose was performed at least twice, and each group of mice consisted of at least 6 mice.

Numbered stars: 1 amine (or outer) side, 2 acyl side, 3 side chain; on linkers, the order of the positions; unused ones are H or OH. Square brackets hold non-standard residues; d marks the D form. Side chains are listed from the residue outwards. Peptide text beside a SMILES is read from it. * marks the point of attachment. TTDA(Palmitoyl) = CCCCCCCCCCCCCCCC(=O)NCCCOCCOCCOCCCN*; Palmitoyl = CCCCCCCCCCCCCCCC(=O)*; Suc = O=C(CCC(=O)[*:2])[*:1]; Lauroyl = CCCCCCCCCCCC(=O)*; Nle = CCCC[C@H](N)C(=O)O; Octanoyl = CCCCCCCC(=O)*; GABA = NCCCC(=O)O

As for `CCCCCCCCCCCCCCCC(=O)NCCCOCCOCCOCCCNC(=O)CCC(=O)NCCCC[C@H](NC(=O)[C@@H](NC(=O)[C@H](CCC(=O)O)NC(=O)[C@H](CCSC)NC(=O)[C@H](CO)NC(=O)[C@H](Cc1c[nH]cn1)NC(=O)[C@H](CCCNC(=N)N)NC(=O)[C@H](Cc1c[nH]cn1)NC(=O)[C@@H](NC(=O)[C@H](CCCNC(=N)N)NC(=O)[C@@H](N)CO)[C@@H](C)O)[C@@H](C)CC)C(=O)N[C@H](C(=O)N1CCC[C@H]1C(=O)N[C@@H](CC(=O)O)C(=O)N[C@H](C(=O)N[C@@H](CC(N)=O)C(=O)N1CCC[C@H]1C(=O)N[C@@H](C)C(=O)N[C@@H](Cc1c[nH]c2ccccc12)C(=O)N[C@@H](Cc1ccc(O)cc1)C(=O)N[C@@H](C)C(=O)N[C@@H](CO)C(=O)N[C@@H](CCCNC(=N)N)C(=O)NCC(=O)N[C@H](C(=O)N[C@@H](CCCNC(=N)N)C(=O)N1CCC[C@H]1C(=O)N[C@H](C(=O)NCC(=O)N[C@@H](CCCNC(=N)N)C(=O)N[C@@H](Cc1ccccc1)C(N)=O)C(C)C)[C@@H](C)CC)[C@@H](C)CC)[C@@H](C)O` [Analog 57] (H-SRTHRHSMEIK([Suc-TTDA(Palmitoyl)])TPDINPAWYASRGIRPVGRF-NH2; N-terminus assumed), the “% of PrRP31, RC-4B/C rat pituitary cells” value at rat PrRP receptor was determined as 663%. Further, the “Food intake in mice % of saline-treated group” value (“Food intake in mice %” below) in the assay on C57BL/6 mice was 10%. Besides, in assay [1], the Ki worked out at 3.79 ± 0.46 nM and the “% of PrRP31, GPR10 human receptor transfected in CHO cells” value (shortened to “% of PrRP31 … in CHO cells”) was determined as 103%. Also, the “Food intake in rats” value in the assay with Wistar rats was “significantly reduced”.

As to `CCCCCCCCCCCCCCCC(=O)NCCCC(=O)NCCCC[C@H](NC(=O)[C@@H](NC(=O)[C@H](CCC(=O)O)NC(=O)[C@H](CCSC)NC(=O)[C@H](CO)NC(=O)[C@H](Cc1c[nH]cn1)NC(=O)[C@H](CCCNC(=N)N)NC(=O)[C@H](Cc1c[nH]cn1)NC(=O)[C@@H](NC(=O)[C@H](CCCNC(=N)N)NC(=O)[C@@H](N)CO)[C@@H](C)O)[C@@H](C)CC)C(=O)N[C@H](C(=O)N1CCC[C@H]1C(=O)N[C@@H](CC(=O)O)C(=O)N[C@H](C(=O)N[C@@H](CC(N)=O)C(=O)N1CCC[C@H]1C(=O)N[C@@H](C)C(=O)N[C@@H](Cc1c[nH]c2ccccc12)C(=O)N[C@@H](Cc1ccc(O)cc1)C(=O)N[C@@H](C)C(=O)N[C@@H](CO)C(=O)N[C@@H](CCCNC(=N)N)C(=O)NCC(=O)N[C@H](C(=O)N[C@@H](CCCNC(=N)N)C(=O)N1CCC[C@H]1C(=O)N[C@H](C(=O)NCC(=O)N[C@@H](CCCNC(=N)N)C(=O)N[C@@H](Cc1ccccc1)C(N)=O)C(C)C)[C@@H](C)CC)[C@@H](C)CC)[C@@H](C)O` [Analog 53] (H-SRTHRHSMEIK([GABA-Palmitoyl])TPDINPAWYASRGIRPVGRF-NH2), the Ki at rat PrRP receptor (RC-4B/C cells, displacement of 125I-rat PrRP31, read-out: Ki, RC-4B/C rat pituitary cells ^25I-rat PrRP31) came out at 1.26 ± 0.57 nM; in assay [1], 9.19 ± 0.96 nM. In addition, the “% of PrRP31, RC-4B/C rat pituitary cells” value on rat PrRP receptor turned out to be 190%. The “Food intake in mice %” value in the assay with C57BL/6 mice is given as 25%. Also, the “% of PrRP31 … in CHO cells” value in assay [1] is on record as 42.5%. Moreover, in the assay with Wistar rats, the “Food intake in rats” value is given as “significantly reduced”.

For `CCCCCCCCCCCCCCCC(=O)NCCCC[C@H](NC(=O)[C@@H](NC(=O)[C@H](CCC(=O)O)NC(=O)[C@H](CCSC)NC(=O)[C@H](CO)NC(=O)[C@H](Cc1c[nH]cn1)NC(=O)[C@H](CCCNC(=N)N)NC(=O)[C@H](Cc1c[nH]cn1)NC(=O)[C@@H](NC(=O)[C@H](CCCNC(=N)N)NC(=O)[C@@H](N)CO)[C@@H](C)O)[C@@H](C)CC)C(=O)N[C@H](C(=O)N1CCC[C@H]1C(=O)N[C@@H](CC(=O)O)C(=O)N[C@H](C(=O)N[C@@H](CC(N)=O)C(=O)N1CCC[C@H]1C(=O)N[C@@H](C)C(=O)N[C@@H](Cc1c[nH]c2ccccc12)C(=O)N[C@@H](Cc1ccc(O)cc1)C(=O)N[C@@H](C)C(=O)N[C@@H](CO)C(=O)N[C@@H](CCCNC(=N)N)C(=O)NCC(=O)N[C@H](C(=O)N[C@@H](CCCNC(=N)N)C(=O)N1CCC[C@H]1C(=O)N[C@H](C(=O)NCC(=O)N[C@@H](CCCNC(=N)N)C(=O)N[C@@H](Cc1ccccc1)C(N)=O)C(C)C)[C@@H](C)CC)[C@@H](C)CC)[C@@H](C)O` [Analog 48] (H-SRTHRHSMEIK(Palmitoyl)TPDINPAWYASRGIRPVGRF-NH2), in the assay with C57BL/6 mice, the “Food intake in mice %” value is 13%. In assay [1], the Ki is 6.37 ± 0.78 nM and the “% of PrRP31 … in CHO cells” value was 61%. Besides, the “Food intake in rats” value in the assay with Wistar rats is on record as “significantly reduced”.

Turning to `CCCCCCCC(=O)N[C@@H](CO)C(=O)N[C@@H](CCCNC(=N)N)C(=O)N[C@@H](C)C(=O)N[C@@H](Cc1c[nH]cn1)C(=O)N[C@@H](CCC(N)=O)C(=O)N[C@@H](Cc1c[nH]cn1)C(=O)N[C@@H](CO)C(=O)N[C@@H](CCCC)C(=O)N[C@@H](CCC(=O)O)C(=O)N[C@H](C(=O)N[C@@H](CCCNC(=N)N)C(=O)N[C@H](C(=O)N1CCC[C@H]1C(=O)N[C@@H](CC(=O)O)C(=O)N[C@H](C(=O)N[C@@H](CC(N)=O)C(=O)N1CCC[C@H]1C(=O)N[C@@H](C)C(=O)N[C@@H](Cc1c[nH]c2ccccc12)C(=O)N[C@@H](Cc1ccc(O)cc1)C(=O)N[C@H](C(=O)NCC(=O)N[C@@H](CCCNC(=N)N)C(=O)NCC(=O)N[C@H](C(=O)N[C@@H](CCCNC(=N)N)C(=O)N1CCC[C@H]1C(=O)N[C@H](C(=O)NCC(=O)N[C@@H](CCCNC(=N)N)C(=O)N[C@@H](Cc1ccccc1)C(N)=O)C(C)C)[C@@H](C)CC)[C@@H](C)O)[C@@H](C)CC)[C@@H](C)O)[C@@H](C)O` [Analog 4] (Octanoyl-SRAHQHS[Nle]ETRTPDINPAWYTGRGIRPVGRF-NH2), the “% of PrRP31, RC-4B/C rat pituitary cells” value on rat PrRP receptor was 503%. Moreover, in the assay with C57BL/6 mice, the “Food intake in mice %” value worked out at 94%. Further, the “% of PrRP31 … in CHO cells” value in assay [1] amounted to 254%.

Turning to `CCCCCCCCCCCC(=O)N[C@@H](CO)C(=O)N[C@@H](CCCNC(=N)N)C(=O)N[C@@H](C)C(=O)N[C@@H](Cc1c[nH]cn1)C(=O)N[C@@H](CCC(N)=O)C(=O)N[C@@H](Cc1c[nH]cn1)C(=O)N[C@@H](CO)C(=O)N[C@@H](CCCC)C(=O)N[C@@H](CCC(=O)O)C(=O)N[C@H](C(=O)N[C@@H](CCCNC(=N)N)C(=O)N[C@H](C(=O)N1CCC[C@H]1C(=O)N[C@@H](CC(=O)O)C(=O)N[C@H](C(=O)N[C@@H](CC(N)=O)C(=O)N1CCC[C@H]1C(=O)N[C@@H](C)C(=O)N[C@@H](Cc1c[nH]c2ccccc12)C(=O)N[C@@H](Cc1ccc(O)cc1)C(=O)N[C@H](C(=O)NCC(=O)N[C@@H](CCCNC(=N)N)C(=O)NCC(=O)N[C@H](C(=O)N[C@@H](CCCNC(=N)N)C(=O)N1CCC[C@H]1C(=O)N[C@H](C(=O)NCC(=O)N[C@@H](CCCNC(=N)N)C(=O)N[C@@H](Cc1ccccc1)C(N)=O)C(C)C)[C@@H](C)CC)[C@@H](C)O)[C@@H](C)CC)[C@@H](C)O)[C@@H](C)O` [Analog 6] (Lauroyl-SRAHQHS[Nle]ETRTPDINPAWYTGRGIRPVGRF-NH2), the “% of PrRP31, RC-4B/C rat pituitary cells” value on rat PrRP receptor is 1264%. Besides, in the assay on C57BL/6 mice, the “Food intake in mice %” value is 22%. In assay [1], the “% of PrRP31 … in CHO cells” value amounted to 327%.
